Experimental data taken from publication PMC3128435 (Journal of physics. Condensed matter : an Institute of …, 2010).

Target: maltoporin (Escherichia coli, UniProt P02943)
Experiment: single-channel current blockage in planar lipid bilayer
Assay type: binding
Details: 1.0 M NaCl, pH 7, 150 mV, 23 °C

Sequence of maltoporin (P02943 26-446): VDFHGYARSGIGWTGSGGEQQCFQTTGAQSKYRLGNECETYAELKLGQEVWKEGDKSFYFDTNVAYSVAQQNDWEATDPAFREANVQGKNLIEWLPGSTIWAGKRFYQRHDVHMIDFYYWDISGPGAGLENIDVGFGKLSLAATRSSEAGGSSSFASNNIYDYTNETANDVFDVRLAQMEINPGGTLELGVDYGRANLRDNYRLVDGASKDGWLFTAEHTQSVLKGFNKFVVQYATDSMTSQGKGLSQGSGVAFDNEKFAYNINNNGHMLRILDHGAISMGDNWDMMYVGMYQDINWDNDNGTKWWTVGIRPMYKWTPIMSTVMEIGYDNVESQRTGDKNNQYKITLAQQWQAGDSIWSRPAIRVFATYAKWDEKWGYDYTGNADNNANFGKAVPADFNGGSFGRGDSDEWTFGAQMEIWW

SMILES | average lifetime of the channel complex (cis-side addition) [ms] | average lifetime of the channel complex [ms]
OC[C@H]1O[C@@H]2O[C@H]3[C@H](O)[C@@H](O)[C@@H](O[C@H]4[C@H](O)[C@@H](O)[C@@H](O[C@H]5[C@H](O)[C@@H](O)[C@@H](O[C@H]6[C@H](O)[C@@H](O)[C@@H](O[C@H]7[C@H](O)[C@@H](O)[C@@H](O[C@H]8[C@H](O)[C@@H](O)[C@@H](O[C@H]1[C@H](O)[C@H]2O)O[C@@H]8CO)O[C@@H]7CO)O[C@@H]6CO)O[C@@H]5CO)O[C@@H]4CO)O[C@@H]3CO [CD, β-cyclodextrin] | 7.3 ± 0.5 | 
OC[C@H]1O[C@H](O[C@H]2[C@H](O)[C@@H](O)[C@@H](O[C@H]3[C@H](O)[C@@H](O)[C@@H](O[C@H]4[C@H](O)[C@@H](O)[C@@H](O[C@H]5[C@H](O)[C@@H](O)[C@@H](O[C@H]6[C@H](O)[C@@H](O)[C@@H](O[C@H]7[C@H](O)[C@@H](O)C(O)O[C@@H]7CO)O[C@@H]6CO)O[C@@H]5CO)O[C@@H]4CO)O[C@@H]3CO)O[C@@H]2CO)[C@H](O)[C@@H](O)[C@@H]1O (some centres unmarked) [m7, maltoheptaose] |  | 2.0 ± 0.3
